What was measured:
[1] = test system: Spontaneously hypertensive rats; experiment: Antihypertensive activity: systolic blood pressure by tail cuff method; assay type: in vivo; conditions: dose of 0.05 mg/kg p.o.
Description: Systolic blood pressures were recorded by a modification of the tail cuff method described by I.M. Claxton, M.G. Palfreyman, R.H. Poyser, R.L. Whiting, European Journal of Pharmacology, 37, 179 (1976). A W+W BP recorder, model 8005 was used to display pulses. Prior to all measurements rats were placed in a heated environment (33.5 ± 0.5°C) before transfer to a restraining cage. The determination of blood pressure was the mean of 5 readings. Spontaneously hypertensive rats (ages 12-18 weeks) with systolic blood pressures >180 mmHg were considered hypertensive.

trachea = experiment: Bronchodilator activity: relaxation of isolated trachea spirals; assay type: cell-based, guinea pigs; conditions: Cavia porcellus; fall in resting tension as percentage of total relaxation evoked by 10⁻³M isoprenaline; guinea pig trachea spirals, Krebs solution at 37°C; read-out: IC₅₀
Description: Male guinea pigs (300-600g) were stunned by a blow to the head and bled from the carotid artery. The trachea was exposed, dissected free of connective tissue, and transferred to oxygenated Krebs solution at 37 °C. Next, spirals (2 per trachea) were prepared by cutting the whole trachea spirally along its longitudinal axis and then dividing this spiral lengthwise. Each preparation was mounted, using silk thread, in a 10ml organ bath filled with Krebs solution at 37 °C and bubbled with 5% CO₂ with O₂. The resting tension of the preparations was set at 2g and changes in muscle tension were monitored isometrically by means of a UFI (2oz) force and displacement transducer (Ormed Ltd) connected to a Linseis pen recorder. All preparations were allowed to equilibrate for 60 minutes. During this equilibration period the preparations were washed by upward displacement at 15 minute intervals and, if necessary, the resting tension was readjusted to 2g using a mechanical micromanipulator system.
Once a steady resting tension had been obtained, the preparations were dosed simultaneously with the test compound (10⁻⁸-2x10⁻⁵M), and finally a maximum relaxation achieved by addition of 10⁻³M isoprenaline. The fall in tension evoked by the test compound was expressed as a percentage of the total relaxation evoked in the presence of 10⁻³ isoprenaline. […]

With `CCc1ccc2c(c1)[C@@H](N1CCCCC1=O)[C@H](O)C(C)(C)O2` [compound of formula (I), 3,4-Dihydro-2,2-dimethyl-6-ethyl-4R-(2-oxopiperidin-1-yl)-2H-1-benzopyran-3S-ol] the “maximum fall in blood pressure” value [1] was 19% and the IC50 (trachea) was 0.23 µM.

Reference: EP0412760A2, “Benzopyran derivatives” (Beecham Group p.l.c., priority 1989, dated 1991)
